Assay type in all cases: functional
One experiment deals with Acinetobacter. The experiment is described as follows: (§1) Compound was evaluated for antibacterial activity against Acinetobacter 14601 compared to imipenem.
Experiment [1] deals with Enterobacter cloacae. The experiment is described as follows: Compound was evaluated for antibacterial activity against Enterobacter cloacae 5744 compared to imipenem.
For experiment [2], the system named is Escherichia coli. The experiment is described as follows: Compound was evaluated for antibacterial activity against Escherichia coli F14 compared to imipenem.
Experiment [3] concerns Escherichia coli. The experiment is described as follows: Compound was evaluated for antibacterial activity against Escherichia coli Neumann compared to imipenem.
Experiment [4] relates to Klebsiella. The experiment is described as follows: Compound was evaluated for antibacterial activity against Klebsiella 57USA compared to imipenem.
In experiment [5] the test system is Klebsiella. The experiment is described as follows: Compound was evaluated for antibacterial activity against Klebsiella 63 compared to imipenem.
The next experiment relates to Morganella morganii. The experiment is described as follows: Compound was evaluated for antibacterial activity against Proteus morganii.932 compared to imipenem.
For the next experiment, the system named is Proteus mirabilis. The experiment is described as follows: Compound was evaluated for antibacterial activity against Proteus mirabilis 1235 compared to imipenem.
A further experiment concerns Proteus vulgaris. The experiment is described as follows: Compound was evaluated for antibacterial activity against Proteus vulgaris N6 compared to imipenem.
A further experiment deals with Providencia rettgeri. The experiment is described as follows: Compound was evaluated for antibacterial activity against Proteus rettgeri 10007 compared to imipenem.
For a further experiment, the system named is Pseudomonas aeruginosa. The experiment is described as follows: Compound was evaluated for antibacterial activity against Pseudomonas aeruginosa F 41 compared to imipenem.
In experiment [6] the test system is Serratia. The experiment is described as follows: Compound was evaluated for antibacterial activity against serratia 16002 compared to imipenem.
Experiment [7] has as its system Staphylococcus. The experiment is described as follows: Compound was evaluated for antibacterial activity against Staphylococcus 25455 compared to imipenem.
In experiment [8] the test system is Staphylococcus. The experiment is described as follows: Compound was evaluated for antibacterial activity against Staphylococcus 25470 compared to imipenem.
Experiment [9] deals with Staphylococcus aureus. The experiment is described as follows: Compound was evaluated for antibacterial activity against Staphylococcus aureus 133 compared to imipenem.
In experiment [10] the test system is Serratia. The experiment is described as follows: Compound was evaluated for antibacterial activity against serratia 16001 compared to imipenem.
Experiment [11] relates to Staphylococcus aureus. The experiment is described as follows: Compound was evaluated for antibacterial activity against Staphylococcus aurues 133 compared to imipenem.
The test system of experiment [12] is Staphylococcus. The experiment is described as follows: Tested for antibacterial activity against Staphylococcus 25470 compared to imipenem.
The test system of another experiment is Acinetobacter sp. Described as §1.
Experiment [13] has as its system Enterobacter cloacae. The experiment is described as follows: Compound was evaluated for antibacterial activity against Enterob. cl.5744 compared to imipenem.

Each structure is given as a SMILES string. Values after ≈ are worked out from the molar mass of the structure shown.

Turning to `C[C@@H](O)[C@H]1C(=O)N2C(C(=O)[O-])=C3c4ccccc4SC[C@@H]3[C@H]12.[Na+]`, the MIC was 4 µg/mL against Acinetobacter; 4 µg/mL with Enterobacter cloacae [1]; 8 µg/mL in the experiment on Escherichia coli [2]; 0.5 µg/mL with Escherichia coli [3]; 4 µg/mL against Klebsiella [4]; 2 µg/mL in the experiment with Klebsiella [5]. In addition, the MIC in the experiment on Morganella morganii is 1 µg/mL; against Proteus mirabilis, less than 0.25 µg/mL; against Proteus vulgaris, less than 0.25 µg/mL; against Providencia rettgeri it was 2 µg/mL; in the experiment with Pseudomonas aeruginosa it was 128 µg/mL; with Serratia [6], 16 µg/mL. Also, the MIC against Staphylococcus [7] was less than 0.25 µg/mL; in the experiment on Staphylococcus [8], 8 µg/mL; in the experiment on Staphylococcus aureus [9], less than 0.25 µg/mL; with Serratia [10], 8 µg/mL.
For the molecule `C[C@@H](O)[C@H]1C(=O)N2C(C(=O)[O-])=C3c4ccsc4CC[C@@H]3[C@H]12.[Na+]`, the MIC worked out at 16 µg/mL with Acinetobacter; 8 µg/mL in the experiment on Enterobacter cloacae [1]; 8 µg/mL in the experiment with Escherichia coli [2]; 1 µg/mL against Escherichia coli [3]; 4 µg/mL in the experiment on Klebsiella [4]; 4 µg/mL against Klebsiella [5]. Also, the MIC was 2 µg/mL in the experiment on Morganella morganii; 1 µg/mL against Proteus mirabilis; less than 0.25 µg/mL with Proteus vulgaris; 4 µg/mL in the experiment on Providencia rettgeri; 128 µg/mL against Pseudomonas aeruginosa; 32 µg/mL with Serratia [6]. Further, the MIC in the experiment with Staphylococcus [7] stood at 1 µg/mL; against Staphylococcus [8] it was 32 µg/mL; against Serratia [10], 32 µg/mL; in the experiment on Staphylococcus aureus [11], 1 µg/mL.
As to `C[C@@H](O)[C@H]1C(=O)N2C(C(=O)[O-])=C3c4ccccc4CCC[C@@H]3[C@H]12.[Na+]`, the MIC in the experiment with Acinetobacter is 64 µg/mL; in the experiment with Enterobacter cloacae [1], 32 µg/mL; in the experiment on Escherichia coli [2] it was 16 µg/mL; against Escherichia coli [3], 2 µg/mL; against Klebsiella [4], 1 µg/mL; in the experiment on Klebsiella [5], 16 µg/mL. Further, the MIC with Morganella morganii is 16 µg/mL; against Proteus mirabilis, 0.5 µg/mL; against Proteus vulgaris it was 1 µg/mL; against Providencia rettgeri, 16 µg/mL; in the experiment on Pseudomonas aeruginosa it was 128 µg/mL; against Serratia [6], 64 µg/mL. For the same molecule, the MIC against Staphylococcus [7] turned out to be 0.5 µg/mL; in the experiment with Staphylococcus [12], 128 µg/mL; against Staphylococcus aureus [9], 0.5 µg/mL; against Serratia [10], 64 µg/mL.
As to `C[C@@H](O)[C@H]1C(=O)N2C(C(=O)O)=C(SCCNC=N)C[C@H]12` [IMIPENEM ANHYDROUS], the MIC in the experiment on Acinetobacter sp. is less than 0.25 µg/mL; in the experiment with Enterobacter cloacae [13], 0.5 µg/mL (≈ 1.67 µM); against Escherichia coli [2], less than 0.25 µg/mL; with Escherichia coli [3], less than 0.25 µg/mL; against Klebsiella [4], less than 0.25 µg/mL; against Klebsiella [5], less than 0.25 µg/mL. The MIC against Morganella morganii was found to be 0.5 µg/mL (≈ 1.67 µM); against Proteus mirabilis, 4 µg/mL (≈ 13.4 µM); in the experiment with Proteus vulgaris it was 0.5 µg/mL (≈ 1.67 µM); against Providencia rettgeri, 2 µg/mL (≈ 6.68 µM); against Pseudomonas aeruginosa, 2 µg/mL (≈ 6.68 µM); with Serratia [6] it was 0.5 µg/mL (≈ 1.67 µM). Further, the MIC with Staphylococcus [7] was less than 0.25 µg/mL; against Staphylococcus [8], 32 µg/mL (≈ 107 µM); against Staphylococcus aureus [9], less than 0.25 µg/mL; against Serratia [10], less than 0.25 µg/mL.
